According to US11174268B2, “Benzenesulfonamide compouds and their use as therapeutic agents” (Xenon Pharmaceuticals Inc., priority 2016, dated 2021):
Counter-ions that a name gives are not always drawn. Like-named read-outs stand apart in the source and are kept apart here.

Key:
NaV1.6 = NaV1.6 (Homo sapiens (Human), UniProt Q9UQD0); assay: Sodium Influx Assay (Flux), NaV1.6; format: cell-based; conditions: Trex HEK293 cells, ANG2 dye, inactivated state;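 note: Tetracycline-induced cells, compounds applied for one hour at room temperature with modulators holding channels open, IC50 from percent inhibition of sodium influx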
NaV1.1 = NaV1.1 (Homo sapiens (Human), UniProt P35498); assay: Sodium Influx Assay (Flux), NaV1.1; format: cell-based; conditions: Trex HEK293 cells, ANG2 dye, inactivated state;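 note: channels co-expressed with human β1 subunit and held open by modulators, cells exposed to compounds for one hour at room temperature, IC50 from percent inhibition of influx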
NaV1.5 = NaV1.5 (Homo sapiens (Human), UniProt Q14524); assay: Sodium Influx Assay (Flux), NaV1.5
Chain of NaV1.5 (Q14524 other isoform, or with tags, fused parts or gaps): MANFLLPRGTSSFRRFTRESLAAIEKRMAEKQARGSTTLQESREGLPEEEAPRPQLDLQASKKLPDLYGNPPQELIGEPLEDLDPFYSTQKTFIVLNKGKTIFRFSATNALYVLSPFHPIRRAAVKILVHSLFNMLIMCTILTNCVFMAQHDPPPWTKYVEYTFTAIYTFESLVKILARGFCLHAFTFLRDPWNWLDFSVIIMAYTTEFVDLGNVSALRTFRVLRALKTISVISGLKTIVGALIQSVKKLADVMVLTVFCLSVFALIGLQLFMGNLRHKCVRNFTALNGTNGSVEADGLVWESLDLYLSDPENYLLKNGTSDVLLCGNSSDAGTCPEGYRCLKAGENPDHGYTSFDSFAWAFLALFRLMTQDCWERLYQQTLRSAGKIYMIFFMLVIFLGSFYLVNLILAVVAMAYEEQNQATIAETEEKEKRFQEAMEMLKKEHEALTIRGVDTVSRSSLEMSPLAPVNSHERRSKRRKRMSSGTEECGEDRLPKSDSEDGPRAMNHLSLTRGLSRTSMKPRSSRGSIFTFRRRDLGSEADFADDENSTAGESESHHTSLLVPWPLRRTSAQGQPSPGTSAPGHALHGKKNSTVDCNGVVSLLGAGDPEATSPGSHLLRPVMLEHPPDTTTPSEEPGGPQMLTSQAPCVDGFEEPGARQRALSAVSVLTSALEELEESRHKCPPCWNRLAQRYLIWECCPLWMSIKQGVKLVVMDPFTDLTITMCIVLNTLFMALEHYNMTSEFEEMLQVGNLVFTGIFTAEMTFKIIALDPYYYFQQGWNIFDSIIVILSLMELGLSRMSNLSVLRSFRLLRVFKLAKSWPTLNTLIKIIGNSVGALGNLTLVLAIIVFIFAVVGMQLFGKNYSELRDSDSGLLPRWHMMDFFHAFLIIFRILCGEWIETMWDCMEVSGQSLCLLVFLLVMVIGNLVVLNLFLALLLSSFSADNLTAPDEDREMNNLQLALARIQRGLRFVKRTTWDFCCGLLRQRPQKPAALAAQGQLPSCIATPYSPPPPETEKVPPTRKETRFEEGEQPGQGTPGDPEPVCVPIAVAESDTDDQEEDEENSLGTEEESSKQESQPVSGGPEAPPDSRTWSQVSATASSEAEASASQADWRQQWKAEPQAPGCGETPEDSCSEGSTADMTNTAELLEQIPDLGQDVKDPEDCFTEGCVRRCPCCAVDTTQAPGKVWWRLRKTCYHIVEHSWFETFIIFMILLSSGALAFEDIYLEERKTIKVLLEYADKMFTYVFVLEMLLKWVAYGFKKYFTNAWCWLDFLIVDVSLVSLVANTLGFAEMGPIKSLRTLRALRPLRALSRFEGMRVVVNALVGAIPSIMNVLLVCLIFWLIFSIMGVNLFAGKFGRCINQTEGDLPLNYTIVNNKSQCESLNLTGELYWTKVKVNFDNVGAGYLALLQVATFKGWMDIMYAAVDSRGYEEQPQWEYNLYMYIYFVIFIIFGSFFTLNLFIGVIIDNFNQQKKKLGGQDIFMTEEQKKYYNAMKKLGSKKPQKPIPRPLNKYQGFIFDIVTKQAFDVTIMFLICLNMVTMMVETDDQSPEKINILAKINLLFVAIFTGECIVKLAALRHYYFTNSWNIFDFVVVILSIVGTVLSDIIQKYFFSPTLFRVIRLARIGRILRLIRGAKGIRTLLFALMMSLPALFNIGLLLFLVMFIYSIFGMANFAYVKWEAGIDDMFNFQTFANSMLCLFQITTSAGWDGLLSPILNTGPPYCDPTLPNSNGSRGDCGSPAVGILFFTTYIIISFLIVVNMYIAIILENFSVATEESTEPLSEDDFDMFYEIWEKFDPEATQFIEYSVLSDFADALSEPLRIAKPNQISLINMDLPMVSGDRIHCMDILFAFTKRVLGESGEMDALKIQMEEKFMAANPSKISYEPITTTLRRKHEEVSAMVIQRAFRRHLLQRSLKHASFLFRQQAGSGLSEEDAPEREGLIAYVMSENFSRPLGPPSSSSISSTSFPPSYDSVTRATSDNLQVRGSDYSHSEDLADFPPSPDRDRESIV

[1] = read-out: Flux NaV1.5 IC50, Trex HEK293 cells, ANG2 dye, inactivated state

Row | SMILES | IC50 (NaV1.6) [µM] | IC50 (NaV1.1) [µM] | IC50 (NaV1.5; [1]) [µM] | IC50 (NaV1.5) [µM]
1 | COCCN(C)Cc1cccc(F)c1CNc1cc(F)c(S(=O)(=O)Nc2cscn2)c(F)c1 [Example 162, 2,6-difluoro-4-((2-fluoro-6-(((2-methoxyethyl)(methyl)amino)methyl)benzyl)amino)-N-(thiazol-4-yl)benzenesulfonamide formate] | 0.461 | 30 | 11 | –
2 | O=S(=O)(Nc1cscn1)c1c(F)cc(NCc2c(F)cccc2CN2CC3(C2)CC3(F)F)cc1F [Example 163, 4-((2-((1,1-difluoro-5-azaspiro[2.3]hexan-5-yl)methyl)-6-fluorobenzyl)amino)-2,6-difluoro-N-(thiazol-4-yl)benzenesulfonamide] | 0.288 | 6.35 | 30 | –
3 | CC1CN(Cc2cccc(F)c2CNc2cc(F)c(S(=O)(=O)Nc3cscn3)c(F)c2)C1 [Example 164, 2,6-difluoro-4-((2-fluoro-6-((3-methylazetidin-1-yl)methyl)benzyl)amino)-N-(thiazol-4-yl)benzenesulfonamide formate] | 0.084 | 22.8 | 20.3 | –
4 | CN(C)Cc1cccc(F)c1CNc1cc(F)c(S(=O)(=O)Nc2cscn2)c(F)c1 [Example 165, 4-((2-((dimethylamino)methyl)-6-fluorobenzyl)amino)-2,6-difluoro-N-(thiazol-4-yl)benzenesulfonamide formate] | 0.361 | 14.9 | – | 20.8
5 | CN(Cc1cccc(F)c1CNc1cc(F)c(S(=O)(=O)Nc2cscn2)c(F)c1)CC1(C)COC1 [Example 167, 2,6-difluoro-4-((2-fluoro-6-((methyl((3-methyloxetan-3-yl)methyl)amino)methyl)benzyl)amino)-N-(thiazol-4-yl)benzenesulfonamide formate] | 0.405 | ≥ 30 | – | ≥ 30
6 | CC1(C)CN(Cc2cccc(F)c2CNc2cc(F)c(S(=O)(=O)Nc3cscn3)c(F)c2)C1 [Example 170, 4-((2-((3,3-dimethylazetidin-1-yl)methyl)-6-fluorobenzyl)amino)-2,6-difluoro-N-(thiazol-4-yl)benzenesulfonamide] | 0.176 | 24.7 | – | 15.2
7 | O=S(=O)(Nc1cscn1)c1c(F)cc(NCc2c(F)cccc2CN2CCC23CCC3)cc1F [Example 173, 4-((2-((1-azaspiro[3.3]heptan-1-yl)methyl)-6-fluorobenzyl)amino)-2,6-difluoro-N-(thiazol-4-yl)benzenesulfonamide formate] | 0.05 | 7.22 | 19.5 | –
8 | O=S(=O)(Nc1cscn1)c1c(F)cc(NCc2c(F)cccc2CN2CC3CC3C2)cc1F (stereo not drawn) [Example 174, 4-((2-((3-azabicyclo[3.1.0]hexan-3-yl)methyl)-6-fluorobenzyl)amino)-2,6-difluoro-N-(thiazol-4-yl)benzenesulfonamide] | 0.035 | 30 | 30 | –
9 | CC(C)CN(C)Cc1cccc(F)c1CNc1cc(F)c(S(=O)(=O)Nc2cscn2)c(F)c1 [Example 175, 2,6-difluoro-4-((2-fluoro-6-((isobutyl(methyl)amino)methyl)benzyl)amino)-N-(thiazol-4-yl)benzenesulfonamide] | 0.342 | 10.7 | 14.5 | –
10 | O=S(=O)(Nc1cscn1)c1c(F)cc(NCc2c(F)cccc2CN2CC(O)(C(F)(F)F)C2)cc1F [Example 176, 2,6-difluoro-4-((2-fluoro-6-((3-hydroxy-3-(trifluoromethyl)azetidin-1-yl)methyl)benzyl)amino)-N-(thiazol-4-yl)benzenesulfonamide formate] | 0.68 | 5.75 | 16.9 | –
11 | O=S(=O)(Nc1cscn1)c1c(F)cc(NCc2c(F)cccc2CNC2CCC2)cc1F [Example 177, 4-((2-((cyclobutylamino)methyl)-6-fluorobenzyl)amino)-2,6-difluoro-N-(thiazol-4-yl)benzenesulfonamide formate] | 0.046 | 5.4 | 22.3 | –
12 | CC(C)(C)NCc1cccc(F)c1CNc1cc(F)c(S(=O)(=O)Nc2cscn2)c(F)c1 [Example 178, 4-((2-((tert-butylamino)methyl)-6-fluorobenzyl)amino)-2,6-difluoro-N-(thiazol-4-yl)benzenesulfonamide formate] | 0.265 | 13.4 | 30 | –
13 | CN(Cc1cccc(F)c1CNc1cc(F)c(S(=O)(=O)Nc2cscn2)c(F)c1)C1CCC1 [Example 179, 4-((2-((cyclobutyl(methyl)amino)methyl)-6-fluorobenzyl)amino)-2,6-difluoro-N-(thiazol-4-yl)benzenesulfonamide formate] | 0.08 | 4.6 | 6.42 | –
14 | CC1(F)CN(Cc2cccc(F)c2CNc2cc(F)c(S(=O)(=O)Nc3cscn3)c(F)c2)C1 [Example 180, 2,6-difluoro-4-((2-fluoro-6-((3-fluoro-3-methylazetidin-1-yl)methyl)benzyl)amino)-N-(thiazol-4-yl)benzenesulfonamide formate] | 0.166 | 22.1 | 24.2 | –
15 | CN(Cc1cccc(F)c1CNc1cc(F)c(S(=O)(=O)Nc2cscn2)c(F)c1)C1COC1 [Example 181, 2,6-difluoro-4-((2-fluoro-6-((methyl(oxetan-3-yl)amino)methyl)benzyl)amino)-N-(thiazol-4-yl)benzenesulfonamide formate] | 2.96 | 10.6 | 30 | –
16 | CCN(CC)Cc1cccc(F)c1CNc1cc(F)c(S(=O)(=O)Nc2cscn2)c(F)c1 [Example 183, 4-((2-((diethylamino)methyl)-6-fluorobenzyl)amino)-2,6-difluoro-N-(thiazol-4-yl)benzenesulfonamide formate] | 0.036 | 30 | 28 | –
17 | CCC(C)(C)N(C)Cc1cccc(F)c1CNc1cc(F)c(S(=O)(=O)Nc2cscn2)c(F)c1 [Example 184, 2,6-difluoro-4-((2-fluoro-6-((methyl(tert-pentyl)amino)methyl)benzyl)amino)-N-(thiazol-4-yl)benzenesulfonamide formate] | 0.332 | ≥ 30 | – | ≥ 30
18 | O=S(=O)(Nc1cscn1)c1c(F)cc(NCc2c(F)cccc2CN2CC3(CC3)C2)cc1F [Example 186, 4-((2-((5-azaspiro[2.3]hexan-5-yl)methyl)-6-fluorobenzyl)amino)-2,6-difluoro-N-(thiazol-4-yl)benzenesulfonamide formate] | 0.019 | 15.5 | 9.12 | –
19 | CN(Cc1cccc(F)c1CNc1cc(F)c(S(=O)(=O)Nc2ccsn2)c(F)c1)C(C)(C)C [Example 189, 4-((2-((tert-butyl(methyl)amino)methyl)-6-fluorobenzyl)amino)-2,6-difluoro-N-(isothiazol-3-yl)benzenesulfonamide formate] | 0.522 | 30 | 30 | –
20 | O=S(=O)(Nc1cscn1)c1cc(Cl)c(NCc2cc(F)c(F)cc2CN2CCC2)cc1F [Example 193, 4-((2-(azetidin-1-ylmethyl)-4,5-difluorobenzyl)amino)-5-chloro-2-fluoro-N-(thiazol-4-yl)benzenesulfonamide formate] | 7.49 | 8.85 | 26.7 | –
21 | O=S(=O)(Nc1cscn1)c1c(F)cc(NCc2cc(CN3CCC3)ccc2F)cc1F [Example 195, 4-((5-(azetidin-1-ylmethyl)-2-fluorobenzyl)amino)-2,6-difluoro-N-(thiazol-4-yl)benzenesulfonamide formate] | 0.688 | 27.2 | 30 | –
22 | O=S(=O)(Nc1cscn1)c1c(F)cc(NCc2cccc(F)c2CN2CCC2)cc1F [Example 196, 4-((2-(azetidin-1-ylmethyl)-3-fluorobenzyl)amino)-2,6-difluoro-N-(thiazol-4-yl)benzenesulfonamide 2,2,2-trifluoroacetate] | 0.187 | 25.9 | 30 | –
23 | O=S(=O)(Nc1cscn1)c1c(F)cc(NCc2cccc(F)c2CN2CCC2)c(Cl)c1F [Example 197, 4-((2-(azetidin-1-ylmethyl)-3-fluorobenzyl)amino)-3-chloro-2,6-difluoro-N-(thiazol-4-yl)benzenesulfonamide 2,2,2-trifluoroacetate] | 0.023 | 12 | 27.6 | –
24 | CC1(C)CCN1Cc1cccc(Cl)c1CNc1cc(F)c(S(=O)(=O)Nc2cscn2)c(F)c1 [Example 199, 4-((2-chloro-6-((2,2-dimethylazetidin-1-yl)methyl)benzyl)amino)-2,6-difluoro-N-(thiazol-4-yl)benzenesulfonamide formate] | 0.213 | 4.08 | 30 | –
25 | O=S(=O)(Nc1cccc(F)n1)c1cc(Cl)c(NCc2ccccc2CN2CCC2)cc1F [Example 200, 4-((2-(azetidin-1-ylmethyl)benzyl)amino)-5-chloro-2-fluoro-N-(6-fluoropyridin-2-yl)benzenesulfonamide] | 0.496 | 4.43 | 15.4 | –
26 | CC(C)N(C)Cc1cccc(F)c1CNc1cc(F)c(S(=O)(=O)Nc2ccon2)c(F)c1 [Example 201, 2,6-difluoro-4-((2-fluoro-6-((isopropyl(methyl)amino)methyl)benzyl)amino)-N-(isoxazol-3-yl)benzenesulfonamide 2,2,2-trifluoroacetate] | 0.561 | 30 | 30 | –
27 | CN(Cc1ccccc1CNc1cc(F)c(S(=O)(=O)Nc2cscn2)c(F)c1)C(C)(C)C [Example 202, 4-((2-((tert-butyl(methyl)amino)methyl)benzyl)amino)-2,6-difluoro-N-(thiazol-4-yl)benzenesulfonamide 2,2,2-trifluoroacetate] | 0.534 | 30 | 30 | –
